The text below walks through data of patent publication US20090062120A1, “Agrochemical Composition” (priority 2005, published 2009).

Data set [1] is classed as physicochemical. The note with it: for External appearance of dilution [5% in water] / Crystal formation in dilution [5% in water; 24 hours, 30° C.] / External appearance of dilution [5% in water; 24 hours, 30° C.] / External appearance of formulation [25° C.; on day of preparation] / External appearance of formulation [after 48 hours at 0° C.]: 2,4-D isopropylamine salt 300 g/l; for External appearance of dilution [5% in water] / Crystal formation in dilution [5% in water; 24 hours, 30° C.] / External appearance of dilution [5% in water; 24 hours, 30° C.]: solvent 5% by volume; for External appearance of dilution [5% in water]: 5% (v/v) dilution in water, 500 ppm CaCO3; for Crystal formation in dilution [5% in water; 24 hours, 30° C.] / External appearance of dilution [5% in water; 24 hours, 30° C.]: 5% dilution in water; for External appearance of formulation [25° C.; on day of preparation] / External appearance of formulation [after 48 hours at 0° C.]: solvent addition 5% by volume. From the text: In the form of its amine salts, 2,4-dichlorophenoxyacetic acid tends to crystallize out of concentrated solutions. It is state of the art to use an approximately 5% addition of NMP in order to prevent crystallization. In the present example the isopropylamine salt of 2,4-dichlorophenoxyacetic acid was used, 2,4-D IPA for short.
Concentrated aqueous solutions of 2,4-D in isopropylamine salt form (350 g/l) were admixed with quantities of demineralized water and of the corresponding solvent addition such that the concentration of 2,4-D isopropylamine salt was 300 g/l and that of the solvent under test was 5% v/v. Then the external appearance, instantaneously (see column 2 of Table 5) and after storage at 0° C. […] Particular emphasis was placed on any crystal formation.

For data set [2] the following is noted: cited from earlier work.
Data set [3] is described as follows: Solubilities of active agrochemical substances in acetylcaprolactam.
Data set [4] is described as follows: Dissolution of tebuconazole in standard aromatic solvents alone. It counts as physicochemical. Particulars: exclusive use of Solvesso 150 or Solvesso 200, without acetylcaprolactam; 250 g/l. From the text:
A corresponding formulation using these solvents alone, therefore, cannot be prepared.

Bounds are passed on as bounds.

Consider `COCC(C)OCC(C)OC` (stereo not drawn) [Dipropylene glycol dimethyl ether], for which, in data set [1], the “External appearance of dilution [5% in water]” value is recorded as “clear”; the “Crystal formation in dilution [5% in water; 24 hours, 30° C.]” value is <1%; the “External appearance of dilution [5% in water; 24 hours, 30° C.]” value was “clear solution,”; the “External appearance of formulation [25° C.; on day of preparation]” value is recorded as “clear solution”. Besides, the “External appearance of formulation [after 48 hours at 0° C.]” value in data set [1] was “clear solution”.

Turning to `CCCCCCCCCC(=O)N(C)C` [Genagen 4296, N,N-dimethylcapramide], in data set [1], the “External appearance of dilution [5% in water]” value is on record as “turbid”; the “Crystal formation in dilution [5% in water; 24 hours, 30° C.]” value was <1%; the “External appearance of dilution [5% in water; 24 hours, 30° C.]” value is recorded as “sample separated,”; the “External appearance of formulation [25° C.; on day of preparation]” value was “clear solution”. Further, in data set [1], the “External appearance of formulation [after 48 hours at 0° C.]” value was “clear solution”.

Regarding `CN1CCCC1=O` [N-Methylpyrrolidone, N-Methyl-2-pyrrolidone], in data set [1], the “External appearance of dilution [5% in water]” value was “clear”; the “Crystal formation in dilution [5% in water; 24 hours, 30° C.]” value was “no crystals”; the “External appearance of dilution [5% in water; 24 hours, 30° C.]” value was “clear solution,”; the “External appearance of formulation [25° C.; on day of preparation]” value is “clear solution”. Further, in data set [1], the “External appearance of formulation [after 48 hours at 0° C.]” value is reported as “clear solution”. For the same compound, in data set [2], the “Toxic effect observed in animal experiments” value is given as “developmentally toxic effect”.

Take `CC(=O)N1CCCCCC1=O` [Peractive LAC, acetylcaprolactam]: in data set [1], the “Behavior compared with NMP” value is on record as “closest to NMP”; the “External appearance of dilution [5% in water]” value is “clear”; the “Crystal formation in dilution [5% in water; 24 hours, 30° C.]” value is recorded as “no crystals”; the “External appearance of dilution [5% in water; 24 hours, 30° C.]” value is on record as “clear solution,”. In addition, in data set [1], the “External appearance of formulation [25° C.; on day of preparation]” value is listed as “clear solution” and the “External appearance of formulation [after 48 hours at 0° C.]” value is given as “clear solution”.

Regarding `COCCOCCOCCOCCOC` [Tetraethylene glycol dimethyl ether], in data set [1], the “External appearance of dilution [5% in water]” value was “clear”; the “Crystal formation in dilution [5% in water; 24 hours, 30° C.]” value is on record as <1%; the “External appearance of dilution [5% in water; 24 hours, 30° C.]” value was “clear solution,”; the “External appearance of formulation [25° C.; on day of preparation]” value is listed as “clear solution”. The “External appearance of formulation [after 48 hours at 0° C.]” value in data set [1] is reported as “clear solution”.

As to `COCCOCCOCCOC` [Triethylene glycol dimethyl ether], in data set [1], the “External appearance of dilution [5% in water]” value is recorded as “clear”; the “Crystal formation in dilution [5% in water; 24 hours, 30° C.]” value was >1%; the “External appearance of dilution [5% in water; 24 hours, 30° C.]” value is “clear solution,”; the “External appearance of formulation [25° C.; on day of preparation]” value was “clear solution”. In data set [1], the “External appearance of formulation [after 48 hours at 0° C.]” value was “clear solution”.

In the case of `CCC(CC)Nc1c([N+](=O)[O-])cc(C)c(C)c1[N+](=O)[O-]` [pendimethalin, N-(1-ethylpropyl)-3,4-dimethyl-2,6-dinitrophenylamine], the “Solubility (% by wt.) at 25° C.” value in data set [3] is reported as 60-65 % by wt.

On to `COC(=O)Nc1cccc(OC(=O)Nc2cccc(C)c2)c1` [phenmedipham], for which, in data set [3], the “Solubility (% by wt.) at 25° C.” value was 15-20 % by wt.

Take `CC(C)(C)C(O)(CCc1ccc(Cl)cc1)Cn1cncn1` (stereo not drawn) [tebuconazole, R,S-1-p-chlorophenyl-4,4-dimethyl-3-(1H-1,2,4-triazol-1-yl-methyl)pentan-3-ol]: in data set [4], the “Dissolution at the concentration specified in Example 4” value is on record as “cannot be dissolved completely”.

For the compound `O=CNC(N1CCN(C(NC=O)C(Cl)(Cl)Cl)CC1)C(Cl)(Cl)Cl` (stereo not drawn) [triforine, N,N′-[1,4-piperazinediylbis(2,2,2-trichloroethylidene)]bis-formamide], the “Solubility (% by wt.) at 25° C.” value in data set [3] is 15-20 % by wt.
